Laboratory results published in patent publication US20250189516A1, “PHOSPHORYLATION OF P53 AS A PROGNOSTIC OR DIAGNOSTIC MARKER FOR THE TREATMENT OF SENESCENT CELLS IN A MAMMAL” (CLEARA BIOTECH B.V., priority 2022, published 2025).
Square brackets hold non-standard residues; d marks the D form. Ends that are not written are not given here.

Legend:
[1] = system: CRC29 colorectal cancer organoid line, liver metastases; test: Colorectal cancer organoid CRC29 caecum implant model, liver metastasis (FIG. 9); assay type: in vivo, immunodeficient mice; details: 50 mg/kg 5-FU, 3 doses of 2.5 mg/kg CL04183, versus PBS
Description: The colorectal cancer organoid line CRC29 was implanted in the caecum of immunodeficient mice. Two weeks after transplantation the animals were treated with either ‘5-Fluorouracil (5-FU) or PBS. […] A) The livers were stained for KU80 or human nucleoli to detect human cancer cells in the mouse organs, together with p-p53 (T55) or PML. B) The number of liver metastases per stained section was counted by eye.
Mouse experiments were performed after approval from the Dutch animal ethics committee (WP number 9124-1-03). NOD.Cg-Prkdcscid Il2rgtm1Wjl/SzJ/J mice were purchased from Charles River and maintained in a pathogen-free environment. The animals were anaesthetized using 75 mg/kg ketamine and 0.5 mg/kg dexmedetomidine injected i.p., while 5 mg/kg carprofen was injected s.c. as analgesia. Subsequently, CRC29 organoids (250000 cells) containing a firefly luciferase construct were transplanted into the caecum in a 10 μl collagen droplet. Two weeks after tumor cell implatation the animals were treated with either 50 mg/kg ‘5-Fluorouracil (5-FU) or PBS. […] Four weeks after transplantation, the mice were sacrificed, and tissues were collected for further processing.

[2] = system: human breast cancer cell lines; test: MTS viability assay in human breast cancer cell lines versus number of PML bodies (FIG. 7); assay type: cell-based
Excerpt: Spearman's rank correlation coefficient (0.93) given; B) Correlation of open P53 (Pab240 clone) and P53 pSer392 (EP155Y clone) staining in a panel of eight human breast cancer lines including luminal, Her2 positive and triple-negative. Spearman's rank correlation coefficient (0.88) given; and C) Association between PML body count/nuclear pixel (to correct for variation in nucleus size between lines) and nuclear P53 pSer392 staining intensity in eight human breast cancer lines plotted against the effective dose inducing cell death in 50% of the population (ED50, as measured by MTS assay) after treatment with CL04177 for these cell lines. Sensitive cell lines are highlighted by the box.
To study the selectivity of different therapies for cancer cells, colorimetric-based cytotoxicity assays were performed two days following treatments. […] The resulting colorimetric reactions were read at 490 nm on a Microplate Absorbance Reader. Relative survival was determined by normalization of the results to Mock (=100% alive). […]
Six days after treatment, cells were incubated with 10 μl CellTiter 96® AQueous One Solution Cell Proliferation Assay (Promega) for 1 hour at 37° C. to perform an MTS assay. Subsequently, absorbance was measured at 490 nm using a Spectramax M5e.

[3] = system: MDA-MB-231 firefly luciferase-containing cells, metastases; test: Anti-metastatic activity in vivo in an orthotopic TNBC model (FIG. 8); design: species or system NSG mice
Description: PBS-treated mice developed metastatic growth visible by bioluminescence.
Approval for this study was obtained by the local University Animal Experimental Committee at the University Medical Center Utrecht (IVD-UMC; WP numbers 9124-1-02 and −05). MDA-MB-231 firefly luciferase-containing cells were transplanted orthotopically into the exposed inguinal mammary fat pad as single cells at a density of 1 millionn cells in 50 ul of a medium into NSG mice (NOD.Cg-PrkdcIL2rgmWij/Szj) (stock 005557). Carprofen was injected s.c. as analgesia following the surgery. Animals were purchased from Charles River and maintained in a pathogen-free environment.
Tumor growth dynamics were quantified in mice with established tumors (>50 mm3). […] After 2 weeks of recovery, mice were sacrificed. For in vivo dosing, the peptides were dissolved in PBS. We used 11 mice per group that were randomly assigned to the different treatment groups before the start of the experiment.
To visualize tumor burden in a live mouse, mice were injected with luciferin substrate i.p. at 150 mg/kg, and imaged under isoflurane anesthesia 15 min later using a bioluminescence imager. The M3Vision software was used to analyze the bioluminescence signal by taking a region of interest (ROI) around the primary tumor to evaluate the BL signal from the tumor or around the upper abdomen and chest of the mouse to evaluate the signal from metastases. The signal was measured in photons/s/cm2.

[4] = system: triple-negative breast cancer cell line MDAMB231; test: Immunofluorescence of MDAMB231 cells surviving the LD50 dose (FIG. 13); assay type: cell-based, human; details: staining two days later, survivors have low PML and p53 (S392)
Description: A) The triple-negative breast cancer cell line MDAMB231 was treated with the LD50 dose, determined in previous assays. Two days later, an immunofluorescence staining was performed for the indicated proteins. B) Therapy-survivors are made up primarily of cells with low levels of these proteins.
(§1) To study the selectivity of different therapies for cancer cells, colorimetric-based cytotoxicity assays were performed two days following treatments. Cells from several different cancer types (breast, ovarian, pancreas, gastric lung and liver cancer) were cultured in 96-wells plates with 4000 cells per well. These were treated with a serial dilution of compounds in triplicates and mock-treatments ([…], since peptides were dissolved therein). The AQeousOne Solution Cell Proliferation Assay Kit was used to assess cell viability, according to the manufacturer's instructions. In short, the old medium was removed and 100 μl of fresh medium and 10 μl of CellTiter AQueousOne solution were added to each well. The plates were incubated for 1 hour at 37° C. The resulting colorimetric reactions were read at 490 nm on a Microplate Absorbance Reader. Relative survival was determined by normalization of the results to Mock (=100% alive). […]

[5] = system: cancer cell lines with wildtype or "open" p53 conformation; test: Viability curves / ED50 in cell lines from several types of cancer by p53 conformation (FIG. 14); assay type: cell-based; details: cancers with genetic mutations in p53, versus wildtype p53 conformation
Excerpt: FIG. 14 The CL04177 peptide targets cells from multiple types of cancer, with a higher selectivity towards cell lines that are genetically predisposed towards expressing p53 in its “open” conformation through TP53 mutations. Viability curves exemplifying the response to the peptide for two cell lines, A) A2780 that has a wildtype p53 conformation and B) H23, which contains p53 with an “open” conformation based on genetic mutations in p53.
as §1

[6] = target: p53-TAD2 phosphorylated at T55 or S46 (Homo sapiens, UniProt P04637); test: Fluorescence anisotropy binding assay with FITC-labelled p53 peptides (FIG. 3); details: versus non-phosphorylated p53-TAD2
Description: Data was acquired on a ClarioStar Plus plate reader. Endpoint measurement with 200 flashes per well were performed. An excitation filter with 482 nm wavelength and emission filter with 530 nm were used and gain adjustment as well as focal height adjustment were performed for each measurement. Fluorescence intensity, parallel fluorescence polarization and perpendicular fluorescence polarization were recorded. Data analysis was performed using MARS Version 3.4 (BMG), Microsoft Excel and GraphPad Prism Version 8.
For measurements, 116 μl of a solution of the specific Cleara peptides (ranging from 1 to 100 μM) were prepared. Subsequently 4 μl of FITC-labelled p53 peptides (stock concentration 15 μM, resulting in a final concentration of 500 nM) were added. 35 μl were then transferred in each well of the 384-well plate. Measurements were performed in triplicates. If necessary, this setup was extended with lower concentrations in order to cover strong interactions.
The anisotropy (r) is defined as the ratio of the polarized component to the total intensity (IT):
where the excitation is polarized along the z-axis, emission from the fluorophore is symmetric around the z-axis, so Ix=Iy and […], resulting in:
The obtained anisotropy values for each concentration of CL peptide can be used to determine the binding affinity, by applying following fitting function: […]

[7] = daily s.c. for one week, 2.5 mg/kg CL04183, 10 mg/kg CL04177, versus PBS

Sequence of p53-TAD2 phosphorylated at T55 or S46 (P04637 37-57 limits assumed): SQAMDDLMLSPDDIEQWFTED

O=c1[nH]cc(F)c(=O)[nH]1 [5-FU, 5-Fluorouracil]
effect on liver metastases [1]: specifically counteract liver metastases

RKKASSKIEAEILDAFSQNWRRKRPPRRRQRRKKRG ([dR][dK][dK][dA][dS][dS][dK][dI][dE][dA][dE][dI][dL][dD][dA][dF][dS][dQ][dN][dW][dR][dR][dK][dR][dP][dP][dR][dR][dR][dQ][dR][dR][dK][dK][dR]G; listed as Homo sapiens) [CL04177, retro-inverso peptide derived from human FOXO4]
sensitivity of cell lines to the peptide ([2]; breast cancer lines with few PML bodies): less sensitive
sensitivity of cell lines to the peptide ([2]; triple-negative lines with high levels of PML bodies): highly sensitive
effect on liver metastases ([3]; FIG. 8): specifically counteract liver metastases
incidence of liver metastasis (bioluminescence of tumor cells in the extracted livers) [3, 7]: decreased the incidence of liver metastasis
incidence of visible metastasis (bioluminescence) [3, 7]: decreased the incidence of visible metastasis
cell population targeted [4]: targets cells with increased PML bodies and phosphorylated p53
sensitivity (ED50s) of cancers predisposed towards "open" p53 [5]: more sensitive

B1: FOXO4: fragment of human FOXO4 (Uniprot ID P98177) from amino acid 86 to 207, recombinant forkhead domain (protein)
chain: GAVTGPRKGGSRRNAWGNQSYAELISQAIESAPEKRLTLAQIYEWMVRTVPYFKDKGDSNSSAGWKNSIRHNLSLHSKFIKVHNEATGKSSWWMLNPEGGKSGKAPRRRAASMDSSSKLLRG
affinity to p53-TAD2 when phosphorylated at T55 or S46 [6]: substantially higher affinity
